Experimental data: paper PMC10698726 (Molecular Pharmaceutics, 2023)
pIC50: −log10 of the molar value. Where two headings read alike, the source gives them in different places.

What was measured:
OCT2 = target: T1, OCT2 (Homo sapiens, UniProt O15244); assay: Inhibition of model substrate uptake in OCT2-overexpressing HEK293 cells; settings: for pIC50: IC50, OCT2, Table S5, 2 μM ASP+ as model substrate; for selectivity ratio at 5 min / inhibition at 5 min, 20 μM: human, OCT2-overexpressing HEK293 cells; for selectivity ratio at 5 min: pH 7.4
T1 sequence (O15244 1-555): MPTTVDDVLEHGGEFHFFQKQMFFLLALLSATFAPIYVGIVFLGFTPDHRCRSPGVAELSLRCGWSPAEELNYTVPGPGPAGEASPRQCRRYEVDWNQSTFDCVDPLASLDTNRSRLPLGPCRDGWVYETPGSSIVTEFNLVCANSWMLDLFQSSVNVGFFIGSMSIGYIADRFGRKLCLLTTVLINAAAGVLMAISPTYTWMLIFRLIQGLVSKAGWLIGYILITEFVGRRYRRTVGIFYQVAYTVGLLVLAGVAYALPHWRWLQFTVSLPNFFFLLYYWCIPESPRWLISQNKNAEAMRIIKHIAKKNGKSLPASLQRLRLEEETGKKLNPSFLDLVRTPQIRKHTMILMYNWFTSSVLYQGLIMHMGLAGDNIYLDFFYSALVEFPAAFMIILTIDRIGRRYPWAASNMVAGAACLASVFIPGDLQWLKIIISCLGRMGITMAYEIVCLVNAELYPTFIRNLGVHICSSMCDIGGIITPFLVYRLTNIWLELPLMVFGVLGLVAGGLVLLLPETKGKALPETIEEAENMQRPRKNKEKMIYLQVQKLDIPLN

OCT3 = target: T2, OCT3 (Homo sapiens, UniProt O75751); assay: Inhibition of model substrate uptake in OCT3-overexpressing HEK293 cells; type: cell-based; settings: for pIC50: 2 μM ASP+ or ethambutol as model substrate
T2 construct: expressed in transfected cells; host or cells: HEK293
T2 sequence (O75751 1-556): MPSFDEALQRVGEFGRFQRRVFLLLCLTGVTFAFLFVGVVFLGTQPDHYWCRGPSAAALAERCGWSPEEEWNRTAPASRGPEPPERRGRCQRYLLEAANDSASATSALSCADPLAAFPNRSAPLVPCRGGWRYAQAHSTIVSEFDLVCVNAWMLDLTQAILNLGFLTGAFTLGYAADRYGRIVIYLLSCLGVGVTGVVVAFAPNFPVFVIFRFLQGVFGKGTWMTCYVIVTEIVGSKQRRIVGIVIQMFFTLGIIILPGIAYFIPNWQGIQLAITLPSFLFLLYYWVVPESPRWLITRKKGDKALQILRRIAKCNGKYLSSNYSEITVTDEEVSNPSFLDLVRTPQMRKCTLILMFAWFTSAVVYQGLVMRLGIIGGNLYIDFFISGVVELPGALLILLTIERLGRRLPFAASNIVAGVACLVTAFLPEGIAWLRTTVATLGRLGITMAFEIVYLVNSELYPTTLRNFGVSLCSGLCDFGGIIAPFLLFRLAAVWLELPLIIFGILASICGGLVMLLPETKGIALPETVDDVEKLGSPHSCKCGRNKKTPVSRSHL
Method in brief: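 IC50 values were fitted with a Hill equation from net uptake, calculated as uptake in overexpressing HEK293 cells minus empty-vector control uptake. Cells were exposed for 5 min to 2 μM model substrate alone, with 20 μM inhibitor, or with a concentration series. Uptake was quantified by ASP^+ fluorescence or LC–MS/MS after lysis in 80% acetonitrile.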

[1] = pH 7.4, probe ASP+ (2 μM), ASP+ inhibition [%], OCT2, 20 μM inhibitor, 2 μM ASP+, 5 min
[2] = HEK293, 5 min, read-out: (S,S)-Ethambutol inhibition [%], OCT3, 20 μM inhibitor, 2 μM (S,S)-ethambutol, 5 min
[3] = HEK293, OCT3, 20 μM inhibitor, 2 μM ASP+, 5 min, read-out: ASP+ inhibition [%]
[4] = pH 7.4, probe (S,S)-ethambutol (2 μM), (S,S)-Ethambutol inhibition [%], OCT2, 20 μM inhibitor, 2 μM (S,S)-ethambutol, 5 min
[5] = pH 7.4, probe N-ethyllidocaine (2 μM), N-Ethyllidocaine inhibition [%], OCT2, 20 μM inhibitor, 2 μM N-ethyllidocaine, 5 min

pIC50 (OCT2; 5 min)	(S,S)-Ethambutol inhibition [%] (OCT2; OCT2, 20 μM inhibitor, 2 μM (S,S)-ethambutol, 5 min)	N-Ethyllidocaine inhibition [%] (OCT2; OCT2, 20 μM inhibitor, 2 μM N-ethyllidocaine, 5 min)	inhibition at 5 min, 20 μM (OCT2; [1]) [%]	inhibition at 20 µM (OCT3; [2]) [%]	inhibition at 20 µM (OCT3; [3]) [%]	pIC50 (OCT3; IC50, OCT3, Table S5, 5 min)	Stereoselectivity (x-fold for the named isomer) (OCT3; OCT3, Table S5, ratio of the IC50 values of both isomers, label = isomer named in the cell (as a rule the one with the higher IC50)) [fold]	(S)-Zolmitriptan inhibition [%] (OCT3; OCT3, 20 μM inhibitor, 2 μM (S)-zolmitriptan, 5 min)	inhibition at 5 min, 20 μM (OCT2; [4]) [%]	inhibition at 5 min, 20 μM (OCT2; [5]) [%]	inhibition at 20 µM (OCT3; HEK293, 5 min, read-out: (S)-Zolmitriptan inhibition [%], OCT3, 20 μM inhibitor, 2 μM (S)-zolmitriptan, 5 min) [%]	pIC50 (OCT3; OCT3, Table S5, 5 min, read-out: IC50)	fold more potent in the inhibition of OCT3 than the respective counterpart (OCT3; OCT3, label = the more potent enantiomer) [fold]	Structure (SMILES)	selectivity ratio at 5 min (OCT2)
4.50	7.4	28.2	86.1	64.7	31.3	4.19	1.6	42.2	–	–	–	–	–	CCN(CC)CC#CCOC(=O)[C@](O)(c1ccccc1)C1CCCCC1 [(R)-Oxybutynine]	1.6
4.08	–	–	16.4	30.2	6.1	–	–	–	15.8	19.6	18.4	–	–	CCCN[C@H]1CCc2nc(N)sc2C1 [(S)-Pramipexole]	4
–	–	–	17.2	55	38.5	–	–	–	13.3	7.3	–	4.76	25	CN(C)CCc1c[nH]c2ccc(C[C@H]3COC(=O)N3)cc12 [(S)-Zolmitriptan]	–
